Columns and labels:
U-266 [1] = test: Anticancer activity against human U-266 cells assessed as inhibition of cell growth; assay type: functional, cell-based
U-266 [2] = test: Antiproliferative activity against human U-266 cells assessed as reduction in cell viability incubated for 96 hrs by ATPlite assay; assay type: functional, cell-based; details: U-266, 96 h
MDA-MB-231 [3] = test: Inhibition of cell adhesion in human MDA-MB-231 cells assessed as reduction in cell adhesion at 10 uM relative to control; assay type: functional; set-up: scale not given: the % may be the effect or the level left
Homo sapiens = species: Homo sapiens; test: Inhibition of PI3K/AKT/NF-kappaB (unknown origin) at 30 uM relative to control
KB = test: Antitumor activity against human KB cells assessed as inhibition of cell growth measured upto 96 hrs in presence of thymidine by Cell titer blue assay; assay type: functional; set-up: scale not given: the % may be the effect or the level left
MDA-MB-231 [4] = test: Inhibition of cell invasion of human MDA-MB-231 cells at 10 uM incubated for 24 hrs by crystal violet staining based analysis; assay type: functional; set-up: scale not given: the % may be the effect or the level left
[5] = target: MAP kinase p38 (Homo sapiens) (UniProt O15264+Q15759+Q16539+P53778); test: Inhibition of p38-MAPK (unknown origin) at 30 uM relative to control; assay type: protein assay
[6] = Inhibition of Streptococcus sobrinus glycosyl transferase
MDA-MB-231 [7] = test: Cytotoxicity against human MDA-MB-231 cells assessed as cell growth inhibition incubated for 48 hrs by SRB assay; assay type: functional, cell-based; details: MDA-MB-231, 48 h
MDA-MB-231 [8] = test: Inhibition of cell migration in human MDA-MB-231 cells measured upto 48 hrs by transwell chamber assay relative to control; assay type: functional; set-up: scale not given: the % may be the effect or the level left
[9] = Inhibition of ERK (unknown origin) at 100 uM by western blot assay relative to control; details: Homo sapiens
U-937 [10] = test: Antiproliferative activity against human U-937 cells measured upto 72 hrs; assay type: functional, cell-based; details: U-937, 72 h
U-937 [11] = test: Antiproliferative activity against human U-937 cells assessed as cell growth inhibition measured after 72 hrs; assay type: functional, cell-based; details: U-937, 72 h
K562 = test: Antiproliferative activity against human K562 cells assessed as reduction in cell viability incubated for 48 hrs by MTT assay; assay type: functional, cell-based; details: K562, 48 h
MDA-MB-231 [12] = test: Antitumor activity against human MDA-MB-231 cells xenografted in athymic nude mouse assessed as the inhibition of tumor growth at 50 mg/kg, sc administered daily once for 31 days relative to control; assay type: functional; set-up: scale not given: the % may be the effect or the level left; details: time 31 day
MCF7 [13] = test: Cytotoxicity against human MCF7 cells assessed as reduction in cell growth incubated for 24 hrs by MTT assay; assay type: functional, cell-based; details: MCF7, 24 h
HCT-116 = test: Cytotoxicity against human HCT-116 cells assessed as reduction in cell growth measured after 24 hrs by MTT assay; assay type: functional, cell-based; details: HCT-116, 24 h
SK-OV-3 = test: Cytotoxicity against human SK-OV-3 cells assessed as reduction in cell growth measured after 24 hrs by MTT assay; assay type: functional, cell-based; details: SK-OV-3, 24 h
PANC-1 = test: Cytotoxicity against human PANC-1 cells assessed as reduction in cell viability measured after 24 hrs by MTT assay; assay type: functional, cell-based; details: PANC-1, 24 h
NCI-H460 = test: Cytotoxicity against human NCI-H460 cells assessed as reduction in cell viability incubated for 24 hrs by MTT assay; assay type: functional, cell-based; details: NCI-H460, 24 h
SK-BR-3 [14] = test: Cytotoxicity against human SK-BR-3 cells assessed as reduction in cell growth incubated for 24 hrs by MTT assay; assay type: functional, cell-based; details: SK-BR-3, 24 h
ZR-75-1 = test: Cytotoxicity against human ZR-75-1 cells assessed as reduction in cell viability incubated for 24 hrs by MTT assay; assay type: functional, cell-based; details: ZR-75-1, 24 h
MDA-MB-231 [15] = test: Cytotoxicity against human MDA-MB-231 cells assessed as reduction in cell viability incubated for 24 hrs by MTT assay; assay type: functional, cell-based; details: MDA-MB-231, 24 h
SK-BR-3 [16] = test: Antiproliferative activity against human SK-BR-3 cells assessed as inhibition of cell proliferation incubated for 3 days by sulforhodamine B colorimetric assay; assay type: functional, cell-based; details: SK-BR-3, 72 h
A-431 = test: Cytotoxicity against human A-431 cells assessed as reduction in cell growth measured after 24 hrs by MTT assay; assay type: functional, cell-based; details: A-431, 24 h
MCF7 [17] = test: Antiproliferative activity against human MCF7 cells assessed as reduction in cell viability incubated for 72 hrs by MTT assay; assay type: functional, cell-based; details: MCF7, 72 h
A549 = test: Antiproliferative activity against human A549 cells expressing wild type EGFR assessed as reduction in cell viability incubated for 48 hrs by MTT assay; assay type: functional, cell-based; details: A549, 48 h
NCI-H441 = test: Antiproliferative activity against human NCI-H441 cells assessed as reduction in cell viability incubated for 48 hrs by WST-8 assay; assay type: functional, cell-based; details: NCI-H441, 48 h
NSCLC = test: Antiproliferative activity against human NSCLC cells assessed as cell growth inhibition incubated for 72 hrs by MTT assay; assay type: functional, cell-based
HCC827 = test: Antiproliferative activity against human HCC827 cells assessed as reduction in cell viability incubated for 72 hrs by MTT assay; assay type: functional, cell-based; details: HCC827, 72 h
MDA-MB-231 [18] = test: Cytotoxicity against human MDA-MB-231 cells assessed as reduction in cell viability measured after 24 hrs by MTT assay; details: MDA-MB-231, 24 h
LNCaP = test: Antiproliferative activity against human LNCaP assessed as reduction in cell viability incubated for 72 hrs by MTT assay; assay type: functional, cell-based

For `COc1ccc2c(c1)O[C@H](c1cc(OC)c(O)c(OC)c1)[C@H](OC(=O)c1cc(O)c(O)c(O)c1)C2`, the IC50 (U-266 [1]) was 0.64 µM.
In the case of `[N-]=[N+]=NC[C@@H]1O[C@H](c2c(O)cc(O)c3c2O[C@H](c2cc(O)c(O)c(O)c2)[C@H](OC(=O)c2cc(O)c(O)c(O)c2)C3)[C@H](O)[C@@H](O)[C@@H]1O`, the IC50 (U-266 [2]) is reported as 15 µM.
With `O=C(O[C@@H]1Cc2c(O)cc(O)cc2O[C@@H]1c1cc(O)c(O)c(O)c1)c1cc(O)c(O)c(O)c1` [EPIGALOCATECHIN GALLATE] the Activity (MDA-MB-231 [3]) was 40%, the inhibition (Homo sapiens) was 25% and the Activity (KB) was 70%. For the same compound, the Activity (MDA-MB-231 [4]) was 56%, the inhibition [5] was 45% and the IC50 [6] was 89.5 µM. The IC50 (MDA-MB-231 [7]) was 149 µM, the Activity (MDA-MB-231 [8]) was 40% and the inhibition [9] was 25%.
For `O=C(Nc1cccc(NC(=O)c2cccc(O)c2O)c1)c1cccc(O)c1O`, the IC50 (U-937 [10]) was 0.67 µM and the IC50 (U-937 [11]) was 1.7 µM.
With `CCCCCCCCCCCCCCCC(=O)Oc1cc([C@H]2Oc3cc(O)cc(O)c3C[C@H]2OC(=O)c2cc(O)c(O)c(O)c2)cc(O)c1O` the IC50 (K562) was 17 µM.
With `CC(=O)Oc1cc(OC(C)=O)c2c(c1)O[C@H](c1cc(OC(C)=O)c(OC(C)=O)c(OC(C)=O)c1)[C@H](OC(=O)c1cc(OC(C)=O)c(OC(C)=O)c(OC(C)=O)c1)C2` the Activity (MDA-MB-231 [12]) was 54%.
Work on `O=C(Oc1ccc(-c2ccc(OC(=O)c3cc(O)c(O)c(O)c3)cc2)cc1)c1cc(O)c(O)c(O)c1` yielded an IC50 (MCF7 [13]) of 10 µM, an IC50 (HCT-116) of 10 µM and an IC50 (SK-OV-3) of 10 µM. It also gave an IC50 (PANC-1) of 10 µM, an IC50 (NCI-H460) of 10 µM and an IC50 (SK-BR-3 [14]) of 2 µM. The IC50 (ZR-75-1) was 2 µM, the IC50 (MDA-MB-231 [15]) was 2 µM and the IC50 (MDA-MB-231 [7]) was 45 µM. For the same compound, the IC50 (SK-BR-3 [16]) was 10 µM and the IC50 (A-431) was 10 µM.
With `O=C(Nc1ccccc1NC(=O)c1ccc(O)c(O)c1)c1ccc(O)c(O)c1` the IC50 (U-937 [10]) was 0.72 µM and the IC50 (U-937 [11]) was 25 µM.
Work on `COc1cccc(C(=O)O[C@H]2COc3cc(OC)cc(OC)c3C2)c1` yielded an IC50 (MCF7 [17]) of 0.77 µM.
Compound `O=C(O[C@@H]1Cc2c(OCc3cnnn3[C@H]3O[C@H](CO)[C@@H](O)[C@H](O)[C@H]3O)cc(O)cc2O[C@@H]1c1cc(O)c(O)c(O)c1)c1cc(O)c(O)c(O)c1` has an IC50 (A549) of 30 µM and an IC50 (NCI-H441) of 100 µM.
`COC(=O)c1c(O)cc2c(c1O)C[C@@H](OC(=O)c1cc(O)c(O)c(O)c1)[C@@H](c1cc(O)c(O)c(O)c1)O2` showed an IC50 (NSCLC) of ~20 µM and an IC50 (HCC827) of ~20 µM.
`O=C(Oc1cc(O)c2ccccc2c1)c1cc(O)c(O)c(O)c1` gave an IC50 (MDA-MB-231 [7]) of 41 µM.
In the case of `CC(=O)Oc1cc(OC(C)=O)c2c(c1)O[C@H](c1cc(OC(C)=O)c(OC(C)=O)c(OC(C)=O)c1)[C@H](OC(=O)c1cc(OC(C)=O)c(OC(C)OC(=O)OC(C)C)c(OC(C)=O)c1)C2` (some centres not stated), the CC50 (MDA-MB-231 [18]) is reported as 53.9 µM.
In the case of `O=C(O[C@@H]1Cc2c(O)cc(O)cc2O[C@@H]1c1ccc(O)c(O)c1)c1cc(O)c(O)c(O)c1` [EPICATECHIN GALLATE], the IC50 (LNCaP) is reported as 36 µM.
With `O=C(Oc1ccc(OC(=O)c2cc(O)c(O)c(O)c2)c2ccccc12)c1cc(O)c(O)c(O)c1` the IC50 (MDA-MB-231 [7]) was 104 µM.

Reference: ChEMBL document CHEMBL5335789, “Tea-break with epigallocatechin gallate derivatives - Powerful polyphenols of great potential for medicine” (Eur J Med Chem, 2023)
